Structures can show the parent of a compound that is named as a salt. ± gives the uncertainty stated by the source.
Assays:
[1] = system: KeratinoSens (HaCaT ARE-luciferase) cells; experiment: efficacy of ARE luciferase induction relative to DMSO (% activity over DMSO); higher = stronger induction; settings: exposure time: 24 h
[2] = system: KeratinoSens (HaCaT ARE-luciferase) cells; experiment: cytotoxicity AC50 (CellTiter-Fluor viability); higher = less cytotoxic; settings: exposure time: 24 h
[3] = system: THP-1; experiment: efficacy of IL-8 induction relative to DMSO (% activity); higher = stronger induction; settings: exposure time: 18 h
[4] = system: lysine peptide Ac-RFAAKAA-COOH; experiment: efficacy of lysine peptide change (negative = depletion) (% activity); higher = less depletion; settings: incubation time: 24 h
[5] = system: cysteine peptide Ac-RFAACAA-COOH; experiment: efficacy of cysteine peptide change (negative = depletion) (% activity); higher = less depletion; settings: incubation time: 24 h
[6] = system: cysteine peptide Ac-RFAACAA-COOH; experiment: AC50 of cysteine peptide concentration-response (direction given by sign of efficacy); higher = less potent; settings: incubation time: 24 h

Row | SMILES | efficacy of ARE luciferase induction [1] | cytotoxicity AC50 [2] [µM] | efficacy of IL-8 induction [3] | efficacy of lysine peptide change [4] | efficacy of cysteine peptide change [5] | AC50 [6] [µM]
1 | COc1cc(Nc2c(C#N)cnc3cc(OCCCN4CCN(C)CC4)c(OC)cc23)c(Cl)cc1Cl [Bosutinib] | -18.8 ± 8.1 | 12.6 | 7.85 ± 7.5 | 120 ± 29 | 32.5 ± 12 | 
2 | CC(C)C[C@H](NC(=O)[C@H](Cc1ccccc1)NC(=O)c1cnccn1)B(O)O [Bortezomib] | -42.8 ± 3.7 | 0.33 ± 0.02 | 504 ± 17 | -35 ± 19 | 8.93 ± 9.3 | 
3 | C=CC(C)(CCC=C(C)C)OC(=O)CC(C)C (centres undefined) [Linalyl isovalerate] | 4.06 ± 7 |  | 0 | 2.12 ± 19 | -30.6 ± 8 | 6.04 ± 4.1
4 | CCc1cccc(CC)c1N(COC)C(=O)CCl [Alachlor] | 35.9 ± 29 | 48.5 ± 6.7 | 0 | 64.4 ± 24 | 0 | 
5 | CC(C)=CCC/C(C)=C\CO [(2Z)-3,7-Dimethylocta-2,6-dien-1-ol] | 19 ± 27 |  | 3.59 ± 6.2 | 21.2 ± 7.3 | -76.1 ± 14 | 62.8 ± 38
6 | Nc1ccc([N+](=O)[O-])cc1N [4-Nitro-1,2-phenylenediamine] | 46.2 ± 27 | 41.6 ± 5.3 | 3.64 ± 4.4 | 1.34 ± 22 | -16.4 ± 5.1 | 
7 | O=C(CS)Nc1ccccc1 [Thioglycolic acid anilide] | -15.9 ± 47 |  | 35.1 ± 9.2 | 28 ± 5.4 | -109 ± 7.9 | 2.54 ± 0.48
8 | Nc1ccc(Nc2ccccc2)cc1 [N-Phenyl-1,4-benzenediamine] | 48.5 ± 28 |  | 5.67 ± 11 | -11.4 ± 12 | -101.7 ± 0.97 | 7.77 ± 3.2
9 | NC(=S)NC(N)=S [2,4-Dithiobiuret] | 59.4 ± 25 |  | 15.5 ± 4.3 | -0.11 ± 21 | -94.5 ± 8 | 3.18 ± 0.37
10 | CC(C)(C)c1ccc(S)cc1 [4-tert-Butylbenzenethiol] | 28 ± 17 |  | 16.3 ± 5.9 | 10.3 ± 18 | -88.2 | 44.7
11 | C[n+]1cc2c3c(ccc2c2ccc4cc5c(cc4c21)OCO5)OCO3 [Sanguinarine] | -34.7 ± 1.6 | 7.37 ± 0.5 | 59.1 ± 21 | 114 ± 27 | 58.9 ± 18 | 
12 | Nc1ccc2cc3ccccc3cc2c1 [2-Aminoanthracene] | 25.1 ± 4.7 |  | 22.1 ± 0.99 | -21.2 ± 1.8 | -84.3 ± 8.4 | 0.19 ± 0.07
13 | Nc1cc(Cl)c(O)c(Cl)c1 [4-Amino-2,6-dichlorophenol] | 99.2 ± 100 |  | 61.6 ± 34 | -45.6 ± 7.5 | -93.8 ± 6.2 | 0.27 ± 0.14
14 | O=C(N/N=C/c1ccc([N+](=O)[O-])o1)c1cc([N+](=O)[O-])cc([N+](=O)[O-])c1O [Nifursol] | 25.2 ± 9.3 |  | 0 | -10.9 ± 19 | -105 ± 6.6 | 77.9 ± 29
15 | CCOP(=S)(OCC)Oc1nc(Cl)c(Cl)cc1Cl [Chlorpyrifos] | 32.7 ± 17 |  | 8.52 ± 1.5 | 26.7 ± 11 | -97.5 ± 7.8 | 9.18 ± 2.6
16 | Clc1ccc2c(c1)Nc1ccccc1S2 [2-Chlorophenothiazine] | 28.3 ± 36 |  | 7.79 ± 8 | -12.3 ± 2.6 | -90.5 ± 15 | 4.03 ± 0.75
17 | Oc1ccc(/C=C/c2cc(O)cc(O)c2)cc1 [Resveratrol] | 29.2 ± 6.2 |  | 3.12 ± 5.4 | -22.5 ± 15 | -69.8 ± 10 | 25.9 ± 11
18 | [OH-].c1cc[c]([Sn+]([c]2ccccc2)[c]2ccccc2)cc1 [Triphenyltin hydroxide] | 429 ± 120 | 2.82 | 16.4 ± 2.2 | 14.6 ± 2.5 | -39.1 ± 94 | 
19 | CCCCCCCCCCCCCCCC[N+](C)(C)Cc1ccccc1 [Benzylhexadecyldimethylammonium chloride] | -36.7 ± 2.6 | 31.8 ± 3.6 | 45 ± 9.3 | 66 ± 24 | 8.87 ± 8.5 | 
20 | CC1=C(/C=C/C(C)=C/C=C/C(C)=C/C=O)C(C)(C)CCC1 [13-cis-Retinal (Vitamin A aldehyde)] | -8.45 ± 12 |  | 3.58 ± 6.2 | 3.09 ± 20 | -71.2 ± 22 | 38.7 ± 6.6
21 | CCCCC/C=C\C=C\C(=O)OCC [Ethyl (2E,4Z)-deca-2,4-dienoate] | 68.2 ± 0.72 |  | 24.4 ± 5.7 | -21.2 ± 2.9 | -99.8 ± 5.5 | 13.7 ± 2.3
22 | c1ccc2[nH]c(-c3cscn3)nc2c1 [Thiabendazole] | 33 ± 4.4 | 14.8 ± 1.9 | 11.1 ± 3.7 | 0.27 ± 31 | 2.83 ± 4.9 | 
23 | COP(=S)(OC)Oc1nc(Cl)c(Cl)cc1Cl [Chlorpyrifos-methyl] | 29.7 ± 29 |  | 0 | 32.7 ± 12 | -104.3 ± 0.97 | 6.5 ± 1.8
24 | CC1=C(/C=C/C(C)=C\C=C\C(C)=C\C(=O)O)C(C)(C)CCC1 [9-cis Retinoic acid] | 47.6 ± 16 |  | 4.41 ± 7.6 | -19.7 ± 2.9 | -104 ± 23 | 41.1 ± 17
25 | c1cc(OCC2CO2)ccc1Cc1ccc(OCC2CO2)cc1 (centres undefined) [Bis[4-(glycidyloxy)phenyl]methane] | -12 ± 59 | 57 ± 12 | -2.51 ± 4.3 | 62.7 ± 21 | -4.82 ± 8.3 | 
26 | CNC(=S)NN [N-Methylhydrazinecarbothioamide] | -12.3 ± 42 | 22.5 ± 2.6 | 91.8 ± 17 | -0.75 ± 9.8 | -58.5 ± 10 | 
27 | CCCCCCCCCCCCCC[N+](C)(C)C [Tetradonium bromide] | -21.2 ± 4.7 | 14.2 ± 1.6 | 43 ± 20 | 103 ± 44 | 61.4 ± 19 | 
28 | Cc1c(C)n(Cc2ccccc2)c2ccc(C(=O)OCCN(C)C)cc12 [Indocate] | 22.8 ± 4.9 | 28.7 ± 6.6 | 17 ± 9.1 | 90.6 ± 13 | 17.7 ± 6 | 
29 | Nc1ccc(/N=N/c2ccccc2)c(N)n1 [Phenazopyridine hydrochloride] | 35.5 ± 17 | 66.8 ± 15 | 51.3 ± 29 | 26.2 ± 4.5 | -35 ± 6.8 | 
30 | COP(=S)(OC)Oc1ccc(SC)c(C)c1 [Fenthion] | 17.4 ± 5.5 |  | -2.61 ± 4.5 | 2.04 ± 28 | 0.74 ± 16 | 
